Data published in ChEMBL document CHEMBL3886771, “Cyclopropanecarboxamido-substitute aromatic compounds as anti-tumor agents” (2016).

Target: Vascular endothelial growth factor receptor 2 (Homo sapiens, UniProt P35968)
Experiment: Inhibition Assay: [Experimental method]: Use Lance@Ultra Ulight™-TK assay kit from PerKinElmer to evaluate the inhibitory activity of compounds at KDR kinase. [Instrument]: PerKinElmer's ENVISION plate reader. [Materials]: Optiplate-384 well plate (PerKinElmer), kinase buffer (50 mM Hepes pH7.5, 0.25 mM EGTA, 2 mM DTT, 0.01% Tween 20, 10 mM Mg2+, 0.5 mM Mn2+), KDR kinase (790-1356 AA, Crown Bioscience), KDR kinase substrate (PerKinElmer catalogue # TRF0127-M), Lance@Eu-W1024-anti-phosphotyrosine (PT66) (PerKinElmer, catalogue #AD0068), ATP (Invitrogen), DMSO (Sigma, catalogue #34869), purified water (Millipore, type: Milli-Q). [Study conditions]: Mix KDR (final concentration: 20 nM) and compound (final DMSO: 0.5%), pre-incubate for 20 min at 30° C.; then add ATP (final concentration: 90 μM) and the substrate (final concentration 50 μM). React for 2 hrs at 30° C. After the reaction, add antibody and reaction for 60 min at 30° C. Read the plate (615 nm, 665 nm), calculate the ratio of the value at 665 nm vs 615 nm and analyze the data.

Sequence of Vascular endothelial growth factor receptor 2 (P35968 whole entry, the tested form may be a part): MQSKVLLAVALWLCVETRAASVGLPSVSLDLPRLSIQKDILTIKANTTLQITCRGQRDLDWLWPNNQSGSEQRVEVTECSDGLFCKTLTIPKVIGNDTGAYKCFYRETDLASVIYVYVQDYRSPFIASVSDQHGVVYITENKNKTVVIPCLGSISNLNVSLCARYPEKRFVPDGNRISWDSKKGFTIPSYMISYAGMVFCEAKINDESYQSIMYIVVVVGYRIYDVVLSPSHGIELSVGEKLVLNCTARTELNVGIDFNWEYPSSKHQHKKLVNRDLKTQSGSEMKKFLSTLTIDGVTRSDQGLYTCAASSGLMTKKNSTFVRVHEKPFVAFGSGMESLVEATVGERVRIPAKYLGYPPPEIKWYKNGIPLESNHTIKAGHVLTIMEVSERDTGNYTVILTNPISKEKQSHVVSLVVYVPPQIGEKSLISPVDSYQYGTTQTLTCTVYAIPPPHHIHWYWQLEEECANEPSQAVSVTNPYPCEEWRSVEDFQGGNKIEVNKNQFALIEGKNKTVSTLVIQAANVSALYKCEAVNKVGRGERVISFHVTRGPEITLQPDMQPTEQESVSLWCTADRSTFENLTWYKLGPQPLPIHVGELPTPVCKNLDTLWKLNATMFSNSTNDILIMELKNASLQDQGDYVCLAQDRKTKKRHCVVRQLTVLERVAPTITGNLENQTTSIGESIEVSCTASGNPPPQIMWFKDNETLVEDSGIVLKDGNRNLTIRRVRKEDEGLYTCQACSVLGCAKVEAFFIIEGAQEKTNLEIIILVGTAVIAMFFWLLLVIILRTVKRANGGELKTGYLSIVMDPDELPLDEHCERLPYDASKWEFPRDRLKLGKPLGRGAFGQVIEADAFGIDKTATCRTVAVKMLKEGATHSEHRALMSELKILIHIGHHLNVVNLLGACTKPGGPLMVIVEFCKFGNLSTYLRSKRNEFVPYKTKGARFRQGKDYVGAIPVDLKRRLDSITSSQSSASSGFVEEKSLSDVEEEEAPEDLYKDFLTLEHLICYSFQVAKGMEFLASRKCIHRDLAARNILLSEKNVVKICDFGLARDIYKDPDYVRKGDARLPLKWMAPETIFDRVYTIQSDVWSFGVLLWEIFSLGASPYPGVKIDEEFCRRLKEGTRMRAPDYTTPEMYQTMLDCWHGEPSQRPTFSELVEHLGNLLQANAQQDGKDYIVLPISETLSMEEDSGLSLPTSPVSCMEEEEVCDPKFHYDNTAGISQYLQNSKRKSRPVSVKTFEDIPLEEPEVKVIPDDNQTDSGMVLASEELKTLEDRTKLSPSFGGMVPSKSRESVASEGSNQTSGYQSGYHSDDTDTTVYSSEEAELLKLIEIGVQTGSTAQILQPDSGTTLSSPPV

Row | IC50 [nM] | Compound
1 | 11.5 | O=C(Nc1ccc(Oc2ccnc(NC(=O)C3CC3)c2)c(F)c1)Nc1ccc(Cl)c(C(F)(F)F)c1
2 | 26.6 | CC(c1cc(NC(=O)Nc2ccc(Oc3ccnc(NC(=O)C4CC4)c3)c(F)c2)cc(C(F)(F)F)c1)N1CCNCC1 (configuration not stated)
